Results: PubChem BioAssay (NCI)
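Grown in 96-well plates, cells were treated for 48 hours with each compound at five concentrations. Insufficient inhibition: endpoint recorded as highest concentration tested. TGI marks complete inhibition of growth.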

How the values were obtained:
Assay in all cases: growth of human tumour cells (NCI), 48 h
[1] = tested on: A498 renal
[2] = tested on: NCI-H460 lung
[3] = tested on: UACC-62 melanoma
[4] = tested on: OVCAR-5 ovarian
[5] = tested on: HCC-2998 colon
[6] = tested on: OVCAR-8 ovarian
[7] = tested on: HOP-92 NSCLC
[8] = tested on: PC-3 prostate
[9] = tested on: HCT-15 colon
[10] = tested on: UO-31 renal
[11] = tested on: CCRF-CEM leukemia
[12] = tested on: SK-MEL-2 melanoma
[13] = tested on: RXF 393 renal
[14] = tested on: MOLT-4 leukemia
[15] = tested on: SN12C renal
[16] = tested on: M14 melanoma
[17] = tested on: A549 NSCLC
[18] = tested on: HCT-116 colon
[19] = tested on: SR leukemia
[20] = tested on: SK-MEL-5 melanoma
[21] = tested on: SNB-19 CNS
[22] = tested on: OVCAR-3 ovarian
[23] = tested on: SF-268 CNS
[24] = tested on: SNB-75 CNS
[25] = tested on: KM12 colon
[26] = tested on: HT29 colon
[27] = tested on: U251 CNS
[28] = tested on: HS 578T breast
[29] = tested on: SF-295 CNS
[30] = tested on: 786-0 renal
[31] = tested on: SK-OV-3 ovarian
[32] = tested on: CAKI-1 renal
[33] = tested on: BT-549 breast
[34] = tested on: T-47D breast
[35] = tested on: EKVX NSCLC
[36] = tested on: COLO 205 colon
[37] = tested on: K-562 leukemia
[38] = tested on: RPMI-8226 leukemia
[39] = tested on: NCI-H23 lung
[40] = tested on: TK-10 renal
[41] = tested on: MDA-MB-435
[42] = tested on: MDA-N
[43] = tested on: OVCAR-4 ovarian
[44] = tested on: IGROV1 ovarian
[45] = tested on: MDA-MB-231 breast
[46] = tested on: ACHN renal
[47] = tested on: UACC-257 melanoma
[48] = tested on: MCF7 breast
[49] = tested on: SW-620 colon
[50] = tested on: DU-145 prostate
[51] = tested on: LOX IMVI melanoma
[52] = tested on: SK-MEL-28 melanoma
[53] = tested on: HOP-62 NSCLC
[54] = tested on: NCI-H226 lung
[55] = tested on: NCI-H522 lung
[56] = tested on: NCI/ADR-RES ovarian
[57] = tested on: SF-539 CNS
[58] = tested on: MALME-3M melanoma
[59] = tested on: HL-60(TB) leukemia

In the case of CCCC(=O)C1=C(O)C(Cc2c(O)c(C)c(O)c(C(=O)CCC)c2O)=C(O)C(C)(C)C1=O, the TGI [1] is reported as over 50 µM, the TGI [2] is reported as 43.1 µM and the TGI [3] is reported as over 50 µM. The TGI [4] was 33.9 µM, the TGI [5] was 34.2 µM and the TGI [6] was over 50 µM. The TGI [7] was over 50 µM, the TGI [8] was over 50 µM and the TGI [9] was over 50 µM. For the same compound, the TGI [10] was over 50 µM, the TGI [11] was 20 µM and the TGI [12] was over 50 µM. It also gave a TGI [13] of over 50 µM, a TGI [14] of 36.3 µM and a TGI [15] of over 50 µM. For the same compound, the TGI [16] was over 50 µM, the TGI [17] was over 50 µM and the TGI [18] was over 50 µM. The TGI [19] was 40.3 µM, the TGI [20] was over 50 µM and the TGI [21] was over 50 µM. For the same compound, the TGI [22] was over 50 µM, the TGI [23] was over 50 µM and the TGI [24] was over 50 µM. For the same compound, the TGI [25] was over 50 µM, the TGI [26] was over 50 µM and the TGI [27] was over 50 µM. The TGI [28] was over 50 µM, the TGI [29] was over 50 µM and the TGI [30] was over 50 µM. The TGI [31] was over 50 µM, the TGI [32] was over 50 µM and the TGI [33] was over 50 µM. It also gave a TGI [34] of over 50 µM, a TGI [35] of over 50 µM and a TGI [36] of over 50 µM. The TGI [37] was 48 µM, the TGI [38] was over 50 µM and the TGI [39] was over 50 µM. The TGI [40] was over 50 µM, the TGI [41] was over 50 µM and the TGI [42] was over 50 µM. The TGI [43] was over 50 µM, the TGI [44] was over 50 µM and the TGI [45] was over 50 µM. For the same compound, the TGI [46] was over 50 µM, the TGI [47] was over 50 µM and the TGI [48] was over 50 µM. For the same compound, the TGI [49] was over 50 µM, the TGI [50] was over 50 µM and the TGI [51] was over 50 µM. It also gave a TGI [52] of over 50 µM and a TGI [53] of over 50 µM.
With S=c1[nH]c2ccc(Br)cc2c(=S)s1 the TGI [2] was 62.4 µM, the TGI [3] was 50.7 µM and the TGI [4] was 60.4 µM. The TGI [5] was 63.7 µM, the TGI [6] was over 100 µM and the TGI [7] was 64.8 µM. It also gave a TGI [8] of 49.8 µM, a TGI [54] of over 100 µM and a TGI [9] of over 100 µM. The TGI [10] was 53.5 µM, the TGI [11] was over 100 µM and the TGI [12] was 61.8 µM. For the same compound, the TGI [55] was 77.7 µM, the TGI [13] was over 100 µM and the TGI [14] was over 100 µM. For the same compound, the TGI [15] was 46.5 µM, the TGI [16] was 95.3 µM and the TGI [17] was over 100 µM. For the same compound, the TGI [18] was 52.1 µM, the TGI [19] was over 100 µM and the TGI [20] was 37.8 µM. For the same compound, the TGI [21] was over 100 µM, the TGI [22] was over 100 µM and the TGI [23] was over 100 µM. The TGI [24] was 93 µM, the TGI [25] was over 100 µM and the TGI [26] was over 100 µM. The TGI [27] was 54.8 µM, the TGI [28] was over 100 µM and the TGI [29] was 85.1 µM. It also gave a TGI [56] of over 100 µM, a TGI [57] of over 100 µM and a TGI [30] of over 100 µM. It also gave a TGI [31] of over 100 µM, a TGI [32] of 57.9 µM and a TGI [33] of over 100 µM. The TGI [34] was 73.9 µM, the TGI [35] was 91.3 µM and the TGI [36] was 32.2 µM. The TGI [37] was over 100 µM, the TGI [38] was 95.4 µM and the TGI [39] was 82.6 µM. For the same compound, the TGI [40] was 84.5 µM, the TGI [58] was over 100 µM and the TGI [41] was 67.2 µM. It also gave a TGI [42] of 54 µM, a TGI [43] of 38.6 µM and a TGI [44] of over 100 µM. It also gave a TGI [45] of 63.7 µM, a TGI [59] of 62.4 µM and a TGI [46] of 56.7 µM. For the same compound, the TGI [47] was 69.5 µM, the TGI [48] was 40.8 µM and the TGI [49] was over 100 µM. The TGI [50] was over 100 µM, the TGI [51] was over 100 µM and the TGI [52] was over 100 µM. It also gave a TGI [53] of over 100 µM.
For O=c1[nH]cnc2c1ncn2[C@@H]1C[C@@H]1CO, the TGI [2] was over 100 µM, the TGI [3] was over 100 µM and the TGI [4] was over 100 µM. For the same compound, the TGI [5] was over 100 µM, the TGI [6] was over 100 µM and the TGI [7] was over 100 µM. The TGI [8] was over 100 µM, the TGI [54] was over 100 µM and the TGI [9] was over 100 µM. It also gave a TGI [10] of over 100 µM, a TGI [11] of over 100 µM and a TGI [12] of over 100 µM. For the same compound, the TGI [55] was over 100 µM, the TGI [13] was over 100 µM and the TGI [14] was over 100 µM. The TGI [15] was over 100 µM, the TGI [16] was over 100 µM and the TGI [17] was over 100 µM. For the same compound, the TGI [18] was over 100 µM, the TGI [19] was over 100 µM and the TGI [20] was over 100 µM. For the same compound, the TGI [21] was over 100 µM, the TGI [23] was over 100 µM and the TGI [24] was over 100 µM. For the same compound, the TGI [25] was over 100 µM, the TGI [26] was over 100 µM and the TGI [27] was over 100 µM. It also gave a TGI [28] of over 100 µM, a TGI [56] of over 100 µM and a TGI [57] of over 100 µM. For the same compound, the TGI [30] was over 100 µM, the TGI [32] was over 100 µM and the TGI [33] was over 100 µM. The TGI [34] was over 100 µM, the TGI [35] was over 100 µM and the TGI [36] was over 100 µM. For the same compound, the TGI [37] was over 100 µM, the TGI [39] was over 100 µM and the TGI [40] was over 100 µM. For the same compound, the TGI [58] was over 100 µM, the TGI [41] was over 100 µM and the TGI [42] was over 100 µM. For the same compound, the TGI [43] was over 100 µM, the TGI [44] was over 100 µM and the TGI [45] was over 100 µM. It also gave a TGI [59] of over 100 µM, a TGI [46] of over 100 µM and a TGI [47] of over 100 µM. For the same compound, the TGI [48] was over 100 µM, the TGI [49] was over 100 µM and the TGI [50] was over 100 µM. It also gave a TGI [51] of over 100 µM, a TGI [52] of over 100 µM and a TGI [53] of over 100 µM.
